Measurements: ChEMBL document CHEMBL5214905 (J Med Chem, 2021)
Active and inactive are the calls of the source. No cut-off for these calls is given here.

How the values were obtained:
[1] = biological target: Indoleamine 2,3-dioxygenase 1 (Homo sapiens, UniProt P14902); assay: Inhibition of human IDO1 (12 to 403 aa) expressed in Escherichia coli Transetta (DE3) by nanodrop 2000c spectrophotometric analysis
[2] = biological target: T1, Tryptophan 2,3-dioxygenase (Homo sapiens, UniProt P48775)
Description: Inhibition of human TDO (19 to 388 aa) expressed in Escherichia coli Transetta (DE3) by nanodrop 2000c spectrophotometric analysis

[3] = biological target: T1, Tryptophan 2,3-dioxygenase; assay: Inhibition of TDO in overexpressing human SW48 cells; format: cell-based
[4] = tested on: MDR1; assay: Apparent permeability in MDCKII expressing MDR1 cells across apical to basolateral side; format: ADME, cell-based, Canis lupus familiaris, MDCK-II; conditions: dog, MDCK-MDR1; read-out: permeability
[5] = tested on: BCRP; assay: Apparent permeability in human Caco-2 expressing BCRP cells across apical to basolateral side; format: ADME, cell-based; conditions: read-out: permeability
[6] = tested on: BCRP; assay: Apparent permeability in human Caco-2 expressing BCRP cells across basolateral to apical side in presence of novobiocin; format: ADME, cell-based; conditions: Caco-2, with novobiocin (concentration not stated), read-out: permeability
[7] = tested on: MDR1; assay: Efflux ratio of apparent permeability across basolateral to apical side to apical to basolateral side in MDCKII expressing MDR1 cells; format: ADME, cell-based, Canis lupus familiaris, MDCK-II; conditions: dog, MDCK-MDR1
[8] = tested on: BCRP; assay: Efflux ratio of apparent permeability across basolateral to apical side to apical to basolateral side in human Caco-2 expressing BCRP cells; format: ADME, cell-based
[9] = tested on: MDR1; assay: Permeability in MDCKII expressing MDR1 cells across apical to basolateral side by measuring ratio of the final amount of the compound in donor and receiver chambers to the initial amount of the compound in the donor chamber relative to control; format: ADME, cell-based, Canis lupus familiaris, MDCK-II; conditions: dog, MDCK-MDR1
[10] = tested on: MDR1; assay: Permeability in MDCKII expressing MDR1 cells across basolateral to apical side by measuring ratio of the final amount of the compound in donor and receiver chambers to the initial amount of the compound in the donor chamber relative to control; format: ADME, cell-based, Canis lupus familiaris, MDCK-II; conditions: dog, MDCK-MDR1
[11] = tested on: BCRP; assay: Permeability in human Caco-2 expressing BCRP cells across basolateral to apical side by measuring ratio of the final amount of the compound in donor and receiver chambers to the initial amount of the compound in the donor chamber relative to control; format: ADME, cell-based
[12] = Unbound fraction in mouse plasma by LC-MS/MS analysis relative to control; format: ADME
[13] = Protein binding in Kunming mouse brain assessed as binding rate by LC-MS/MS analysis relative to control; format: ADME, tissue-based; conditions: read-out: PB (converted)
[14] = Tmax in Sprague-Dawley rat plasma at 100 mg/kg, po measured after 0.083 to 24 hrs by HPLC analysis; format: ADME, organism-based; conditions: time 0.083-24 hrs
[15] = AUC (0 to infinity) in Sprague-Dawley rat plasma at 100 mg/kg, po measured after 0.083 to 24 hrs by HPLC analysis; format: ADME, organism-based; parameters: time 0.083-24 hrs, dose 100 mg/kg, route po
[16] = Volume of distribution at steady state in Sprague-Dawley rat plasma at 100 mg/kg, po measured after 0.083 to 24 hrs by HPLC analysis; format: ADME, organism-based; conditions: in vivo, time 0.083-24 hrs
[17] = Clearance in Sprague-Dawley rat plasma at 100 mg/kg, iv measured after 0.083 to 24 hrs by HPLC analysis; format: ADME, organism-based; conditions: time 0.083-24 hrs
[18] = Ratio of drug concentration in total brain to total plasma in Kunming mouse assessed as blood brain barrier permeability measured at 0.5 to 12 hrs by HPLC analysis; conditions: time 0.5-12 hrs
[19] = tested on: Mus musculus; assay: Neuroprotective activity in MPTP induced C57BL/6J mouse neurodegenerative model treated with MPTP for 7 days followed by compound administration at 10 to 30 mg/kg, po measured on day 6 to 12 upto 180 secs at 25 rpm by rota-rod test; format: functional, organism-based; conditions: dose 10-30 mg/kg, time 6-12 day
[20] = Toxicity in MPTP induced C57BL/6J mouse neurodegenerative model assessed as no change in heart weight treated with MPTP for 7 days followed by compound administration at 10 to 30 mg/kg, po measured upto 32 days; format: organism-based; conditions: in vivo, 768 h, dose 10-30 mg/kg, time < 32 day
[21] = Toxicity in MPTP induced C57BL/6J mouse neurodegenerative model assessed as no change in spleen weight treated with MPTP for 7 days followed by compound administration at 10 to 30 mg/kg, po measured upto 32 days; format: organism-based; conditions: in vivo, 768 h, dose 10-30 mg/kg, time < 32 day
[22] = Toxicity in MPTP induced C57BL/6J mouse neurodegenerative model assessed as no change in kidney weight treated with MPTP for 7 days followed by compound administration at 10 to 30 mg/kg, po measured upto 32 days; format: organism-based; conditions: in vivo, 768 h, dose 10-30 mg/kg, time < 32 day
[23] = tested on: Mus musculus; assay: Neuroprotective activity in MPTP induced C57BL/6J mouse neurodegenerative model assessed as increase in tyrosine hydroxylase expression in positive neuron cells in brain SNpc treated with MPTP for 7 days followed by compound administration at 30 mg/kg, po by IHC staining method; format: functional, organism-based; conditions: Substantia nigra pars compacta
[24] = tested on: Mus musculus; assay: Neuroprotective activity in MPTP induced C57BL/6J mouse neurodegenerative model assessed as normal cell morphology in neuron cells treated with MPTP for 7 days followed by compound administration at 30 mg/kg, po by IHC staining method; format: functional, organism-based
[25] = tested on: Mus musculus; assay: Neuroprotective activity in MPTP induced C57BL/6J mouse neurodegenerative model assessed as normal fiber innervation in brain treated with MPTP for 7 days followed by compound administration at 30 mg/kg, po by IHC staining method; format: functional, organism-based
[26] = tested on: Mus musculus; assay: In vivo antiinflammatory activity in MPTP induced C57BL/6J mouse neurodegenerative model assessed as decrease in TNF-alpha expression treated with MPTP for 7 days followed by compound administration at 30 mg/kg, po by Western blotting analysis; format: functional, organism-based
[27] = tested on: Mus musculus; assay: Neuroprotective activity in MPTP induced neurodegenerative C57BL/6J mouse model assessed as decrease in tryptophan metabolite NFK in mouse substantia nigra treated with MPTP for 7 days followed by compound administration at 30 mg/kg, po by LC-MS/MS analysis; format: functional, organism-based
[28] = biological target: CYP2C9 (Homo sapiens, UniProt P11712); assay: Inhibition of human liver microsome CYP2C9 using 4'-hydroxy diclofenac as substrate incubated at 3 uM for 10 mins by LC/MS/MS analysis relative to control; conditions: liver microsomes, probe 4'-hydroxy diclofenac (so in the source)
Sequence of CYP2C9 (P11712 whole entry): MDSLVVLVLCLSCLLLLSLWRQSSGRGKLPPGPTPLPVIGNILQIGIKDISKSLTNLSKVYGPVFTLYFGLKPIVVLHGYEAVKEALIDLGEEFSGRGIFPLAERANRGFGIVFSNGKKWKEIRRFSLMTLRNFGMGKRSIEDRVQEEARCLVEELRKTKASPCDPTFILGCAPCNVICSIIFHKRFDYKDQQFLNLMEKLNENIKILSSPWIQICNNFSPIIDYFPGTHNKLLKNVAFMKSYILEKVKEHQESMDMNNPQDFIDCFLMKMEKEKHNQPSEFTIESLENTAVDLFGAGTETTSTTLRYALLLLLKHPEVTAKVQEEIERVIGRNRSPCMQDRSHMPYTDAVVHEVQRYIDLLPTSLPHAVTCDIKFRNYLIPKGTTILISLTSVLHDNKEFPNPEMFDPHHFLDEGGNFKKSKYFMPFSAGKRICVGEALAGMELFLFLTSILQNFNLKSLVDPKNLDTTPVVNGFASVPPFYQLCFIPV

[29] = biological target: Receptor-type tyrosine-protein kinase FLT3 (Homo sapiens) (UniProt P36888); assay: Inhibition of human wildtype partial length FLT3 expressed in bacterial system at 10 uM relative to control
Sequence of Receptor-type tyrosine-protein kinase FLT3 (Homo sapiens) (P36888 whole entry): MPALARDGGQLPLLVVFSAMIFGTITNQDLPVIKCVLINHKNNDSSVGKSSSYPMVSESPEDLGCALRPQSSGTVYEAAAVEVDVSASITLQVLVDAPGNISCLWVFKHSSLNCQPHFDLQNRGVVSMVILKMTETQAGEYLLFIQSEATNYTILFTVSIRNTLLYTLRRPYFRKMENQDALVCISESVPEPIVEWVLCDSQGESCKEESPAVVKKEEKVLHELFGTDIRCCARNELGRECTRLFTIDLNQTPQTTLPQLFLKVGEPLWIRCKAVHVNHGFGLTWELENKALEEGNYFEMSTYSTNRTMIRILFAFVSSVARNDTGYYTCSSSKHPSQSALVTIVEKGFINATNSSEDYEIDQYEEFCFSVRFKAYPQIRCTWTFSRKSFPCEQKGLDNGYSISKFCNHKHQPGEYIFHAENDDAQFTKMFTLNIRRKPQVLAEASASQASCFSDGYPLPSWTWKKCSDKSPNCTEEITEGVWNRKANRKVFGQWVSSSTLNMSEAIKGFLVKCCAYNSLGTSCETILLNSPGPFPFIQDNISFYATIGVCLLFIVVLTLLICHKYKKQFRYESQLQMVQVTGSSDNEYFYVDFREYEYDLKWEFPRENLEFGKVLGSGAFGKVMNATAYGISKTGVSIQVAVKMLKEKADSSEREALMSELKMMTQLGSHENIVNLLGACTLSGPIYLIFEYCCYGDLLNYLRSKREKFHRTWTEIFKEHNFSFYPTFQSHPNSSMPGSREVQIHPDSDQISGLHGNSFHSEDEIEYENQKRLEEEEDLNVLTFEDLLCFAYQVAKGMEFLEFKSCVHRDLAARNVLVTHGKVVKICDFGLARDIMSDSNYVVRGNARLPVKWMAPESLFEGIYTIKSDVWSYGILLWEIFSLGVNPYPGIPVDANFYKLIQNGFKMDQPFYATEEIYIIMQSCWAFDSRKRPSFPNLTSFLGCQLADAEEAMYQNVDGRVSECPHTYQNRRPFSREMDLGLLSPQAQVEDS

[30] = biological target: Glycogen synthase kinase-3 beta (Homo sapiens) (UniProt P49841); assay: Inhibition of human wildtype full length GSK3 beta expressed in bacterial system at 10 uM relative to control
Sequence of Glycogen synthase kinase-3 beta (Homo sapiens) (P49841 whole entry, looked up): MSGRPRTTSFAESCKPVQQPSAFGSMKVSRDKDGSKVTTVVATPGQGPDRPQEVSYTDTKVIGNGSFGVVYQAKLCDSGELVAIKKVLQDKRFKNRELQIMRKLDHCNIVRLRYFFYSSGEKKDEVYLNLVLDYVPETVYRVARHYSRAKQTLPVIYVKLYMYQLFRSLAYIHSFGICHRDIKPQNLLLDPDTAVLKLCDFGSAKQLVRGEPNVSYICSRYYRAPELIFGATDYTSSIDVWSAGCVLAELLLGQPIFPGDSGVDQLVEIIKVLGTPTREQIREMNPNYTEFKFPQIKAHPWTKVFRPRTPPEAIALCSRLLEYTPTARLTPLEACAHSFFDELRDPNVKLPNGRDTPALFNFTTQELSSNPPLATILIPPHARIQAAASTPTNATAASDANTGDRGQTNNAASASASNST

T1 sequence (P48775 whole entry): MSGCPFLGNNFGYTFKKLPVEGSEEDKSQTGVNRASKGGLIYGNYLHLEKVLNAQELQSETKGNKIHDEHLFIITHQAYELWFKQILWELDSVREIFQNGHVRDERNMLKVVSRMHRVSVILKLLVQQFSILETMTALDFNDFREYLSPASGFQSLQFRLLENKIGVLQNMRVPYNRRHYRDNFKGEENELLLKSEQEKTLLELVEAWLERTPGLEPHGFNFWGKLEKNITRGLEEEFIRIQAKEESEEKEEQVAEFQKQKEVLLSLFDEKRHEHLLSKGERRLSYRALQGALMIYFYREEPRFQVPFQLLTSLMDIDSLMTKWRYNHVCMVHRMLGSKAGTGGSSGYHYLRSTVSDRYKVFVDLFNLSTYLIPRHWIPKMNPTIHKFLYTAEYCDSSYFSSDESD
Sequence of Indoleamine 2,3-dioxygenase 1 (P14902 whole entry, the tested form may be a part): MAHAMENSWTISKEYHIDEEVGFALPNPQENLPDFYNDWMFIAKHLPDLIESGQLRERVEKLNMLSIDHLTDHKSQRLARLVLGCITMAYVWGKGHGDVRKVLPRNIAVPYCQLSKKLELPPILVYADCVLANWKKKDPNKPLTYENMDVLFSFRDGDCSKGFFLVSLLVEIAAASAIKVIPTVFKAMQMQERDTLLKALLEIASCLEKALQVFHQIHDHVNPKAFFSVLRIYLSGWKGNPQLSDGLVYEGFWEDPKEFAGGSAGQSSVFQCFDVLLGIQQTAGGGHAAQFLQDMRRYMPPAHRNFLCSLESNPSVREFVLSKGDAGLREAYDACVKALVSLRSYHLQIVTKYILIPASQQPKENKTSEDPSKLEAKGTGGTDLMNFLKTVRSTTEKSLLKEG

Question: Which IC50 [1] does the source give for `O[C@@H]1CCCC[C@H]1CNc1cc(Br)cc2[nH]ncc12` here?
Answer: 640 nM

Question: And the IC50 [2]?
Answer: 40 nM

Question: And the EC50 [3]?
Answer: 1070 nM

Question: What about the Papp A→B [4] of the same compound?
Answer: 13.5 ×10⁻⁶ cm/s

Question: What about the Papp A→B [5] of the same compound?
Answer: 18.8 ×10⁻⁶ cm/s

Question: And the Papp B→A [6]?
Answer: 9.97 ×10⁻⁶ cm/s

Question: And the efflux ratio [7]?
Answer: 0.77

Question: What about the efflux ratio [8] of the same compound?
Answer: 0.56

Question: And the recovery [9]?
Answer: 55.1%

Question: And the recovery [10]?
Answer: 81.9%

Question: What about the recovery [11] of the same compound?
Answer: 74.5%

Question: And the Fu [12]?
Answer: 0.73%

Question: And the fraction unbound [13]?
Answer: 0.0025

Question: What about the Tmax [14] of the same compound?
Answer: 25.2 min

Question: What about the AUC(0-inf) [15] of the same compound?
Answer: 26600 ng·h/mL

Question: And the Vdss [16]?
Answer: 25.45 L/kg

Question: What about the clearance [17] of the same compound?
Answer: 40.5 mL/min/kg

Question: What about the Ratio [18] of the same compound?
Answer: 0.81%

Question: And the Activity [19]?
Answer: Active

Question: And the Activity [20]?
Answer: Non-Toxic

Question: And the Activity [21]?
Answer: Non-Toxic

Question: And the Activity [22]?
Answer: Non-Toxic

Question: And the Activity [23]?
Answer: Active

Question: What about the Activity [24] of the same compound?
Answer: Active

Question: What about the Activity [25] of the same compound?
Answer: Active

Question: And the Activity [26]?
Answer: Active

Question: What about the Activity [27] of the same compound?
Answer: Active

Question: And the inhibition at 10 min, 3 µM [28]?
Answer: 83.4%

Question: And the inhibition [29]?
Answer: > 90%

Question: What about the inhibition [30] of the same compound?
Answer: > 90%
